Assay: 13C hyperpolarization by Para Hydrogen Induced Polarization (PHIP) with Goldman RF transfer sequence
Type: physicochemical
Conditions: non-deuterated, natural abundance 13C
Excerpt: Our objective was to test a model system of polarization that can be incorporated into peptide sequence. Dehydroalanine is an unnatural amino acid with a methylene group instead of the normal methyl side chain for alanine. Several publications laid out the framework on synthesizing peptides containing this reactive amino acid side chain double bond. (Okeley N M, Zhu Y, van der Donk W A. Facile Chemoselective Synthesis of Dehydroalanine-Containing Peptides†. Organic Letters. 2000; 2(23):3603-6). The double bond of dehydroalanine is ideally positioned for PHIP to generate a polarized ^13C carboxyl nucleus with the resulting product an alanine amino acid residue. We utilized a purchased chemical equivalent resembling dehydroalanine in a peptide chain with the terminal carboxyl and amine protected by functional groups (FIG. 1). […] The 3JHH scalar coupling (J) constant was kept at 7.47 Hz, the 3JHH value was determined by proton spectroscopy. All measured samples were combined and lyophilized to dryness, then and dissolved in 2.5 mL of diH2O and scanned (^13C spectroscopy) for 17 hours with a repetition time of 50 seconds. […]

polarization reached with the best set of scalar coupling constants (13C carboxyl carbon of the alanine product after 3 second para-hydrogenation of 24 mM MAA in deuterium oxide, 1.4 mT PHIP instrument): 0.1±0.07%
maximum polarization from the best sequence (approximated from the Boltzmann thermal equilibrium signal, 13C spectroscopy at 9.4T): ~0.2%
SMILES: C=C(NC(C)=O)C(=O)OC [MAA, methyl 2-acetamidoacrylate]

— patent publication US20180230182A1, “HYPERPOLARIZATION OF AMINO ACID RESIDUES FOR PRODUCING HYPERPOLARIZED PEPTIDES” (Cedars-Sinai Medical Center, priority 2017, published 2018)
